Experimental data from ChEMBL document CHEMBL1909524, “Discovery of a novel series of cyclic urea as potent CCR5 antagonists” (Bioorg Med Chem Lett, 2011).

How the values were obtained:
[1] = tested on: Human immunodeficiency virus 1; assay: Antiviral activity against HIV1 Ba-L infected in human HOS cells assessed as reduction of viral replication after 4 days by Steady-Glo luciferase assay; type: functional, organism-based; settings: Human immunodeficiency virus 1, Ba-L, 96 h
[2] = tested on: Human immunodeficiency virus 1; assay: Antiviral activity against HIV1 Ba-L infected in human PBL cells assessed as reduction of viral replication after 4 days by Steady-Glo luciferase assay; type: functional, organism-based; settings: Human immunodeficiency virus 1, Ba-L, 96 h
HOS = assay: Cytotoxicity against human HOS cells assessed as cell death up to 1 uM by celltiter glo assay; type: cell-based
PBL = assay: Cytotoxicity against human PBL cells assessed as cell death up to 1 uM by celltiter glo assay; type: cell-based
[3] = Metabolic stability of the compound in fasted stimulated intestinal fluid; type: physicochemical; settings: simulated gi fluid
[4] = Stability of the compound in fasted stimulated intestinal fluid within 1000 hrs; type: physicochemical; settings: simulated gi fluid
[5] = Clearance in rat; type: ADME, organism-based; settings: in vivo
[6] = Half life in dog at 1 mg/kg, iv; type: ADME, organism-based, Canis lupus familiaris; design: dose 1 mg/kg, route intravenous; settings: in vivo
[7] = Clearance in dog at 1 mg/kg, po; type: ADME, organism-based, Canis lupus familiaris; design: dose 1 mg/kg, route oral; settings: in vivo
[8] = Oral bioavailability in dog at 1 mg/kg; type: ADME, organism-based, Canis lupus familiaris; settings: in vivo
[9] = Half life in monkey at 1 mg/kg, iv; type: ADME, organism-based, Macaca mulatta; design: dose 1 mg/kg, route intravenous; settings: rhesus monkey, in vivo
[10] = Clearance in monkey at 1 mg/kg, po; type: ADME, organism-based, Macaca mulatta; design: dose 1 mg/kg, route oral; settings: rhesus monkey, in vivo
[11] = Oral bioavailability in monkey at 1 mg/kg; type: ADME, organism-based, Macaca mulatta; settings: rhesus monkey, in vivo
[12] = Stability of the compound in fasted stimulated intestinal fluid assessed as half life at pH 6; type: physicochemical; settings: fasted simulated intestinal fluid

IC50 [1] [nM]	IC50 [2] [nM]	Compound	Activity (HOS)	Activity (PBL)	other results
213	289	Cc1nc(Oc2ccc(S(C)(=O)=O)cc2)ccc1CN1CCC(N2C(=O)N(c3cc(C(N)=O)c(F)cc3F)C[C@@H]2c2ccccc2)CC1	–	–	–
12	2	Cc1nc(Oc2ccc(S(C)(=O)=O)cc2)ccc1CN1CCC(N2C(=O)N(c3cc(C(N)=O)c(F)cc3F)CC2c2ccccc2)CC1 (racemic)	–	–	–
5.4	–	Cc1cc(S(C)(=O)=O)ccc1Oc1ccc(CN2CCC(N3C(=O)N(c4cc(C(N)=O)c(F)cc4F)C[C@H]3c3ccccc3)CC2)c(C)n1	Non-toxic	Non-toxic	–
2.6	1.6	CC(C)c1nc(Oc2ccc(S(C)(=O)=O)cc2)ccc1CN1CCC(N2C(=O)N(c3cc(C(N)=O)c(F)cc3F)C[C@H]2c2ccccc2)CC1	Non-toxic	Non-toxic	–
14	–	Cc1nc(Oc2ccc(NS(C)(=O)=O)cc2)ccc1CN1CCC(N2C(=O)N(c3cc(C(N)=O)c(F)cc3F)C(=O)C2c2ccccc2)CC1 (racemic)	–	–	Stability [3]: Unstable
3.3	0.5	Cc1nc(Oc2ccc(CC(=O)NC(C)C)cc2)ccc1CN1CCC(N2C(=O)N(c3cc(C(N)=O)c(F)cc3F)C[C@H]2c2ccccc2)CC1	Non-toxic	Non-toxic	–
3.6	1.1	Cc1nc(Oc2ccc(S(=O)(=O)C(C)C)cc2)ccc1CN1CCC(N2C(=O)N(c3cc(C(N)=O)c(F)cc3F)C[C@H]2c2ccccc2)CC1	Non-toxic	Non-toxic	–
5.2	0.6	Cc1nc(Oc2ccc(S(C)(=O)=O)cc2F)ccc1CN1CCC(N2C(=O)N(c3cc(C(N)=O)c(F)cc3F)C[C@H]2c2ccccc2)CC1	Non-toxic	Non-toxic	–
4	1	Cc1nc(Oc2ccc(S(C)(=O)=O)cc2)ccc1CN1CCC(N2C(=O)N(c3cc(C(N)=O)c(F)cc3F)C[C@H]2c2ccccc2)CC1	Non-toxic	Non-toxic	Stability [4]: Stable; clearance [5]: 27 mL/min/kg; half-life [6]: 6.9 h; CL/F [7]: 2.1 mL/min/kg; bioavailability [8]: 76%; half-life [9]: 1.4 h; CL/F [10]: 20.2 mL/min/kg; bioavailability [11]: 110%
2	0.6	Cc1nc(Oc2ccc(NS(C)(=O)=O)cc2)ccc1CN1CCC(N(C(=O)Nc2cc(C(N)=O)c(F)cc2F)c2cccc(F)c2)CC1	–	–	half-life [12]: 334 h
1.7	0.9	Cc1nc(Oc2ccc(NS(C)(=O)=O)cc2)ccc1CN1CCC(N(Cc2ccccc2F)C(=O)Nc2cc(C(N)=O)c(F)cc2F)CC1	–	–	–

Compound	IC50 [1] [nM]	IC50 [2] [nM]	Activity (HOS)	Activity (PBL)	other results
Cc1nc(Oc2ccc(NS(C)(=O)=O)cc2)ccc1CN1CCC(N(C(=O)Oc2ccc(F)c(C(N)=O)c2)c2cccc(F)c2)CC1	29	–	–	–	–
